Target: T1, hP2X7 (Homo sapiens, UniProt Q99572)
T1 construct: expressed in transfected cells; host or cells: HEK-293, stably transfected (gift of E. Adinolfi's group, Ferrara University)
T1 sequence (Q99572 1-595): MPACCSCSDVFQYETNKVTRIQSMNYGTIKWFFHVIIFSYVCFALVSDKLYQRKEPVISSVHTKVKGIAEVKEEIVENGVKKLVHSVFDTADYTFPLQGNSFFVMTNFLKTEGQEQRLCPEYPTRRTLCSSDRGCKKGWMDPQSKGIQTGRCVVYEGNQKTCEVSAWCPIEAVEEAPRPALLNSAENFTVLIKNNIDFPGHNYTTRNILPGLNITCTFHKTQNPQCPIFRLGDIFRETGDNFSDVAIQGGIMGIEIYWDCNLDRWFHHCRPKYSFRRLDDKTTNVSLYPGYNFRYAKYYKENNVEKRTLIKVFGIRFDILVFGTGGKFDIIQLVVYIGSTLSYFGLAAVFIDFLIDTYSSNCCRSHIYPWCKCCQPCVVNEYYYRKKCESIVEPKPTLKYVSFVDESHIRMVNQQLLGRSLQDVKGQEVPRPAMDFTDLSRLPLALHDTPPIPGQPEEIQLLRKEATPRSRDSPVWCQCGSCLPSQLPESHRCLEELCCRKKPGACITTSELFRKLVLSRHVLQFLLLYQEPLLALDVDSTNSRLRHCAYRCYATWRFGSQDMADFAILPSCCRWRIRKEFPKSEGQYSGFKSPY
Test: YO-PRO 1 dye uptake assay, 1321 N1 cells stably transfected with hP2X7
Assay type: cell-based
Settings: for activity in YO-PRO 1 dye uptake screen / reduction of P2X7 activation: compound 30 μM, 700 μM ATP; for reduction of P2X7 activation: 0.3% DMSO
Description: Astrocytoma 1321 N1 (established by Dr. Gaia Pasqualetto) and HEK-293 (kindly gifted by E. Adinolfi’s group, Ferrara University) both stably transfected with hP2X7, were used to assess the activity of the small molecules selected from the VS. Cells were maintained in DMEM:F12 (PanBiotech) supplemented with 10% FBS, 1% pen-strep, and 150 μg/mL G418 (PanBiotech).
Astrocytoma 1321 N1 cells (2–2.5 × 10^4 cells/well) and HEK-293 cells (4–5 × 10^4 cells/well) expressing hP2X7 were seeded in poly-L-lysine-coated 96-well plates (Sarstedt) 24 h before the experiment. YO-PRO 1 dye was prepared at 5 μM in extracellular solution with low divalent cations (ECS-LD) buffer (147 mM NaCl, 10 mM HEPES, 13 mM glucose, 0.2 mM CaCl2, 2 mM KCl, pH 7.4) and added to cells after washing them with Dulbecco’s phosphate- buffered saline (DPBS) (PanBiotech) and incubated for 20 min at 37 °C. ATP-induced dye uptake, mediated by hP2X7 activation, was monitored using a Clariostar plate reader (excitation: 485 nm; emission: 538 nm) for 30 cycles (75–150 s/cycle), after recording the baseline for five cycles. hP2X7 activation was quantified at cycle 10 by calculating the fluorescence intensity (FI) ratio (Δ(Fcycle 10–F cycle 1)/cycle time).
The P2X7 receptor, besides being a ligand-gated ion channel, forms large membrane pores following prolonged exposure to high concentrations of ATP, leading to apoptosis (Mackenzie et al. 2005). The YO-PRO 1 dye uptake assay, which measures dye influx through these pores, was selected as the primary screen. The fluorescence of YO-PRO 1 increases when it binds to DNA, enabling real-time monitoring of P2X7 activation (calculated as the rate of increase in fluorescence as YO-PRO 1 binds nuclear DNA).
The screening compounds were tested at 30 μM (0.3% DMSO) in 5 μM YO-PRO 1 dye diluted in freshly prepared ECS-LD buffer. Cells pretreated with the screening compounds were challenged with 700 μM ATP, and the fluorescence intensities were recorded. The negative control consisted of cells treated with 0.3% DMSO, while the positive control was 0.1 μM JNJ47965567, a selective P2X7 antagonist. ,
2 Initial screening assays to identify hit compounds. (A) The compounds were screened at 30 μM in the YO-PRO 1 dye uptake using 1321 N1 cells stably transfected with hP2X7. Compound activity was evaluated along a time of 20 min (75 s per cycle) after ATP addition (700 μM). The fluorescence intensity (FI) values of the first 10 cycles were considered for assessing their ability to inhibit hP2X7. Compound responses were normalized to the fluorescent signal recorded on 0.3% DMSO cells treated with 700 μM ATP of each plate. […] (B) Compounds screened at 10 μM using MPR using 1321 N1 cells stably transfected with hP2X7. The compound activity was evaluated for 5 min after ATP addition (15 s per cycle). The fluorescence intensity recorded in the first cycles (before reaching a plateau response) was considered for assessing the small molecule’s ability to inhibit hP2X7. Compound responses were normalized to the fluorescence signal recorded on 0.1% DMSO cells treated with 700 μM ATP of each plate. […] One-way ANOVA and Dunnet test were used for statistical analysis (****P < 0.0001), (*P < 0.02).

SMILES | Hill Slope of ATP concentration-response curve (YO-PRO 1 uptake, 1321 N1 hP2X7 cells) | EC50 (YO-PRO 1 uptake, 1321 N1 hP2X7 cells, ATP 1 μM to 10 mM) | activity in YO-PRO 1 dye uptake screen | reduction of P2X7 activation
Nc1ncnc2c1ncn2[C@@H]1O[C@H](COP(=O)(O)OP(=O)(O)OP(=O)(O)O)[C@@H](O)[C@H]1O [ATP, reference compound] | 1.161 | 697 ± 203 µM | – | –
O=C(NCCc1ccccc1)NC(Cc1ccc2c(c1)OCO2)Cc1ccc2c(c1)OCO2 [Compound 2] | – | – | antagonist activity | at least 50%
O=C(CSc1ccccc1C(=O)Nc1ccnn1Cc1cccnc1)Nc1ccc2c(c1)OCO2 [Compound 9] | – | – | antagonist activity | at least 50%

— PMC12264943, “Identification of New Human P2X7 Antagonists Using Ligand- and Structure-Based Virtual Screening” (Journal of Chemical Information and Modeling, 2025)
